Series [1] addresses HA H1 A/California/07/09 (Influenza A virus (A/California/07/2009(H1N1)), UniProt C3W5X2). The series can be described thus: biochemical. The note with it: Competition binding (AlphaLISA), pIC50 H1 A/California/07/09. (In general: Alpha assays give light when donor and acceptor beads are brought close together.)
Series [2] addresses HA H1 A/New Caledonia/20/99 (Influenza A virus (A/New Caledonia/20/1999(H1N1)), UniProt Q6WG00). In words: biochemical. The settings on record: Competition binding (AlphaLISA), pIC50 H1 A/New Caledonia/20/99.
In series [3] the target is HA H5 A/Vietnam/1203/04 (Influenza A virus (A/Vietnam/1203/2004(H5N1)), UniProt Q5EP31). In words: biochemical. The note with it: Competition binding (AlphaLISA), pIC50 H5 A/Vietnam/1203/04.
The subject of series [4] is H1N1 A/California/07/09. The series can be described thus: microbe, parasite or virus in culture. The class given is cell-based, influenza A virus. The note with it: Influenza A virus, H1N1, MDCK, 96 h, read-out: Virus neutralization assay (VNA), pEC50 H1N1 A/California/07/09 (converted).
Series [5] relates to H1N1 A/New Caledonia/20/99. In words: microbe, parasite or virus in culture. The class given is cell-based, influenza A virus. The settings on record: Influenza A virus, H1N1, MDCK, 96 h, read-out: Virus neutralization assay (VNA), pEC50 H1N1 A/New Caledonia/20/99 (converted).
Series [6] deals with H5N1 A/Vietnam/1203/04. The series can be described thus: microbe, parasite or virus in culture. The class given is cell-based, influenza A virus. The note with it: Influenza A virus, H5N1, MDCK, 96 h, read-out: Virus neutralization assay (VNA), pEC50 H5N1 A/Vietnam/1203/04, MDCK cells, 96 h, CPE by ATPlite (converted); average of repeats. In general terms: Cellular ATP, detected with luciferase, serves as a proxy for viable cell number.

Series [7] in a line: in vitro. The note with it: dog, Cytotoxicity (pCC50) MDCK.

23 molecules from patent US11040963B2 (priority 2017, dated 2021) can be followed below.

Each structure is given as a SMILES string.

A word on the IC50: it is the concentration at which inhibition is half-maximal. Usually CC50 stands for the concentration giving 50% cytotoxicity. Lower therefore signals harm at low concentration.

`Cc1nnc(C(c2ccccc2)N2CCN(C(=O)c3cc(-c4nc5cc(OC(F)(F)F)ccc5o4)ccn3)CC2)s1` (centres unmarked) [Example 49]: the half-inhibitory concentration (IC50) in series [1] is 251 nM; in series [2], 200 nM; in series [3], 3980 nM. Further, the values for the EC50 in series [4], in series [5] and in series [6] were 501 nM, 316 nM and 31.6 µM, respectively. The molecule also had a CC50 in series [7] of 15.8 µM.
As for `COC(=O)C(c1ccccc1)N1CCN(C(=O)c2cccc(-c3nc4cccnc4o3)c2)CC1` (centres unmarked) [Example 50], the concentration for half-maximal inhibition (IC50) in series [1] is 63.1 nM; in series [2], 63.1 nM; in series [3] it was 3980 nM. Moreover, the EC50 in series [4] is 794 nM; in series [5], 316 nM; in series [6], 31.6 µM. The molecule also returned a CC50 in series [7] greater than 50.1 µM.
For `CC(=O)Nc1ccc2oc(-c3cccc(C(=O)N4CCN(C(c5ccccc5)c5nnc(C)o5)CC4)c3)nc2c1` (centres unmarked) [Example 51], the values for the IC50 in series [1], in series [2] and in series [3] were 15.8 nM, 12.6 nM and 631 nM, respectively. The EC50 in series [4] was 251 nM; in series [5], 251 nM; in series [6] it was 15.8 µM. Further, it took 50.1 µM to reach half-maximal cytotoxicity in series [7] (CC50).
For `Cn1ccc(C(c2ccccc2)N2CCN(C(=O)c3cccc(-c4nc5cc(C(F)(F)F)ccc5o4)c3)CC2)n1` (centres unmarked) [Example 53], the results for the half-maximal inhibitory concentration (IC50) in series [1], in series [2] and in series [3] were 5010 nM, 3980 nM and 20000 nM, respectively. In addition, the EC50 in series [4] was 1000 nM; in series [5], 398 nM; in series [6], greater than 50.1 µM. The molecule further returned a CC50 in series [7] greater than 50.1 µM.
For the molecule `COC(=O)C(c1ccccc1)N1CCN(C(=O)c2cncc(-c3nc4ccc(OC)cc4s3)c2)CC1` (centres unmarked) [Example 54], the results for the IC50 in series [1], in series [2] and in series [3] were 100 nM, 50.1 nM and 398 nM, respectively. Also, the results for the EC50 in series [4], in series [5] and in series [6] were 1260 nM, 398 nM and 6.31 µM, respectively. Besides, in series [7], it took 50.1 µM to reach half-maximal cytotoxicity (CC50).
On to `COc1ccc2nc(-c3cccc(C(=O)N4CCN(C(C(=O)NCCCN)c5ccccc5)CC4)c3)sc2c1` (centres unmarked) [Example 55], for which the IC50 in series [1] was 63.1 nM; in series [2] it was 50.1 nM; in series [3], 631 nM. The EC50 in series [4] is 2000 nM; in series [5], 398 nM; in series [6], 10 µM. In series [7], this molecule yielded a CC50 greater than 50.1 µM.
Turning to `COc1ccc2nc(-c3cccc(C(=O)N4CCN(C(c5ccccc5)c5nncs5)CC4)c3)sc2c1` (centres unmarked) [Example 56], the IC50 was 398 nM in series [1], 158 nM in series [2] and 3160 nM in series [3]. Also, the EC50 is 5010 nM in series [4], 398 nM in series [5] and greater than 50.1 µM in series [6]. In series [7], this molecule displayed a half-maximal cytotoxic concentration (CC50) greater than 50.1 µM.
In the case of `O=C(c1cccc(-c2nc3cc(C(F)(F)F)ccc3o2)c1)N1CCN(C(c2ccccc2)c2nnc(C3(O)CCC3)o2)CC1` (centres unmarked) [Example 57], the figures for the IC50 in series [1], in series [2] and in series [3] were 50.1 nM, 79.4 nM and 2510 nM, respectively. In addition, the EC50 in series [4] was 251 nM; in series [5] it was 501 nM; in series [6] it was 20 µM. Moreover, the CC50 in series [7] is 39.8 µM.
`COC(=O)[C@@H](c1ccccc1)N1CCN(C(=O)c2cccc(-c3nc4cc(C(F)(F)F)ccc4o3)c2)[C@@H](CC(N)=O)C1` [Example 58]: the IC50 is 39.8 nM in series [1], 31.6 nM in series [2] and 1000 nM in series [3]. Moreover, the EC50 was 398 nM in series [4], 398 nM in series [5] and 5.01 µM in series [6]. Further, the cytotoxic concentration (CC50) in series [7] is 39.8 µM.
Turning to `COC(=O)C(c1ccccc1)N1CCN(C(=O)c2cccc(-c3nc4cc(Cl)ccc4o3)c2)CC1` (centres unmarked) [Example 59], the IC50 in series [1] is 63.1 nM; in series [2], 63.1 nM; in series [3] it was 2000 nM. Moreover, the EC50 in series [4] was 398 nM; in series [5], 501 nM; in series [6] it was 20 µM. The same molecule had a CC50 in series [7] greater than 50.1 µM.
`COC(=O)C(c1ccccc1)N1CCN(C(=O)c2cccc(-c3nc4ccc(OC)cc4o3)c2)CC1` (centres unmarked) [Example 60]: the results for the IC50 in series [1], in series [2] and in series [3] were 63.1 nM, 39.8 nM and 1580 nM, respectively. Moreover, the EC50 in series [4] is 631 nM; in series [5], 501 nM; in series [6], 12.6 µM. The molecule also showed a CC50 in series [7] of 25.1 µM.
Consider `COc1ccc2nc(-c3cccc(C(=O)N4CCN([C@H](c5ccccc5)c5nnn(C)n5)CC4)c3)sc2c1` [Example 61], for which the results for the half-maximal inhibitory concentration (IC50) in series [1], in series [2] and in series [3] were 79.4 nM, 63.1 nM and 501 nM, respectively. Also, the EC50 was 631 nM in series [4], 501 nM in series [5] and 2 µM in series [6]. The same molecule gave a CC50 in series [7] of 39.8 µM.
Take `COC(=O)[C@H](c1ccccc1)N1CCN(C(=O)c2cccc(-c3nc4cc(C(F)(F)F)ccc4o3)c2)[C@@H](C(N)=O)C1` [Example 62]: the half-inhibitory concentration (IC50) in series [1] is 100 nM; in series [2] it was 100 nM; in series [3] it was 3160 nM. Also, the EC50 is 631 nM in series [4], 631 nM in series [5] and 20 µM in series [6]. Moreover, in series [7], half-maximal cytotoxicity (CC50) was put at 39.8 µM.
Regarding `Cc1nnc([C@@H](c2ccccc2)N2CCN(C(=O)c3cc(F)cc(-c4nc5cc(C(F)(F)F)ccc5o4)c3)CC2)o1` [Example 63], the IC50 was 158 nM in series [1], 158 nM in series [2] and 15800 nM in series [3]. In addition, the values for the EC50 in series [4], in series [5] and in series [6] were 631 nM, 501 nM and greater than 50.1 µM, respectively. The molecule also yielded a CC50 in series [7] greater than 50.1 µM.
Regarding `CNC(=O)c1cnc(-c2cccc(C(=O)N3CCN(C(C(=O)OC)c4ccccc4)CC3)c2)s1` (centres unmarked) [Example 64], the IC50 in series [1] is 79.4 nM; in series [2], 79.4 nM; in series [3], 2000 nM. Moreover, the EC50 is 1000 nM in series [4], 501 nM in series [5] and 25.1 µM in series [6]. In series [7], this molecule returned a CC50 greater than 50.1 µM.
Regarding `COC(=O)C(c1ccccn1)C1CCN(C(=O)c2cccc(-c3nc4ccc(OC)cc4s3)c2)CC1` (centres unmarked) [Example 66], the IC50 in series [1] was 100 nM; in series [2], 63.1 nM; in series [3] it was 794 nM. The values for the EC50 in series [4], in series [5] and in series [6] were 1000 nM, 501 nM and 12.6 µM, respectively. The molecule also showed a 50% cytotoxic concentration (CC50) in series [7] of 20 µM.
Take `COC(=O)[C@@H](c1ccccc1)N1CCN(C(=O)c2cccc(-c3nc4cc(C(F)(F)F)ccc4o3)c2)[C@H](CC(N)=O)C1` [Example 67]: the IC50 in series [1] is 50.1 nM; in series [2], 50.1 nM; in series [3], 3160 nM. For the same molecule, the EC50 in series [4] was 794 nM; in series [5] it was 631 nM; in series [6], 31.6 µM. Also, the midpoint of cytotoxicity in series [7], the CC50, lay at 39.8 µM.
In the case of `COC(=O)C(c1cccnc1)N1CCN(C(=O)c2cccc(-c3nc4ccc(OC)cc4s3)c2)CC1` (centres unmarked) [Example 68], the 50% inhibitory concentration (IC50) in series [1] is 200 nM; in series [2], 100 nM; in series [3], 1260 nM. Also, the EC50 in series [4] is 2000 nM; in series [5], 501 nM; in series [6] it was 20 µM. This molecule also showed a CC50 in series [7] of 10 µM.
Take `[2H]C([2H])([2H])c1nnc(C(c2ccccc2)N2CCN(C(=O)c3cccc(-c4nc5cc(C(F)(F)F)ccc5o4)c3)CC2)o1` (centres unmarked) [Example 70]: the figures for the 50% inhibitory concentration (IC50) in series [1], in series [2] and in series [3] were 158 nM, 158 nM and 3980 nM, respectively. Besides, the EC50 in series [4] is 501 nM; in series [5], 631 nM; in series [6], greater than 50.1 µM. For the same molecule, in series [7], the 50% cytotoxic concentration (CC50) is greater than 50.1 µM.
As for `COc1ccc2nc(-c3cccc(C(=O)N4CCN(C(c5ccccc5)c5nnc(C)o5)CC4)c3)sc2c1` (centres unmarked) [Example 71], the results for the concentration for half-maximal inhibition (IC50) in series [1], in series [2] and in series [3] were 100 nM, 100 nM and 1000 nM, respectively. For the same molecule, the EC50 is 794 nM in series [4], 631 nM in series [5] and 7.94 µM in series [6]. Moreover, the CC50 in series [7] was greater than 50.1 µM.
As for `COc1ccc2nc(-c3cccc(C(=O)N4CCN(C(c5ccccc5)c5nnn(C)n5)CC4)c3)sc2c1` (centres unmarked) [Example 72], the half-maximal inhibitory concentration (IC50) in series [1] was 200 nM; in series [2], 126 nM; in series [3], 1580 nM. The EC50 in series [4] is 794 nM; in series [5], 631 nM; in series [6] it was 39.8 µM. Moreover, the CC50 in series [7] was 50.1 µM.
Take `Cc1nnc(C(c2ccccc2)N2CCN(C(=O)c3cccc(-c4nc5cc(NS(C)(=O)=O)ccc5o4)c3)CC2)o1` (centres unmarked) [Example 73]: the figures for the IC50 in series [1], in series [2] and in series [3] were 15.8 nM, 25.1 nM and 1260 nM, respectively. Further, the EC50 was 794 nM in series [4], 794 nM in series [5] and greater than 50.1 µM in series [6]. For the same molecule, the CC50 in series [7] is greater than 50.1 µM.
For the molecule `COc1ccc2nc(-c3cccc(C(=O)N4CCN(C(c5ccccc5)c5ncco5)CC4)c3)sc2c1` (centres unmarked) [Example 74], the half-inhibitory concentration (IC50) is 200 nM in series [1], 79.4 nM in series [2] and 2000 nM in series [3]. In addition, the figures for the EC50 in series [4], in series [5] and in series [6] were 1000 nM, 631 nM and 6.31 µM, respectively. Besides, in series [7], the CC50 was greater than 50.1 µM.
